How the values were obtained:
[1] = target: T1, EGFR (Homo sapiens, UniProt P00533); assay: EGFR ELISA assay (in vitro kinase activity, EGFR captured from A431 cell lysate); assay type: biochemical; parameters: concentration or dose not given beside the values
T1 construct: Add 7 ug A431 cell lysate per well (EGFR source); endogenous in cells; host or cells: A431
In short: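 EGFR from A431 lysate was captured on plates coated with anti-EGFR antibody. Compounds were added 30 min before a 5 min phosphorylation with 3 µM ATP/5 mM MnCl2, which was stopped with 20 mM EDTA. Phosphotyrosine was detected with rabbit anti-phosphotyrosine, then a peroxidase-conjugated secondary and ABTS/H2O2, read at 410 nm.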

[2] = target: PDGF-R (Homo sapiens, UniProt P09619); assay: PDGF-R ELISA; assay type: cell-based
Excerpt: A PDGF-R ELISA is described in International Patent Publication No. WO 96/40116, published December 19, 1996 by Tang et al.

[3] = system: MET; assay: MET biochemical kinase assay; parameters: species or system human; concentration or dose not given beside the values
In short: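 Colorimetric signal from an HRP-linked anti-phosphotyrosine antibody with TMB measures phosphate incorporated into immobilised MET. The receptor is pulled from lysates by a polyclonal antibody against its cytoplasmic domain, then reacts in ATP- and metal-containing buffer with test compound.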

PDGF-R, sequence (P09619 33-1106, species assumed): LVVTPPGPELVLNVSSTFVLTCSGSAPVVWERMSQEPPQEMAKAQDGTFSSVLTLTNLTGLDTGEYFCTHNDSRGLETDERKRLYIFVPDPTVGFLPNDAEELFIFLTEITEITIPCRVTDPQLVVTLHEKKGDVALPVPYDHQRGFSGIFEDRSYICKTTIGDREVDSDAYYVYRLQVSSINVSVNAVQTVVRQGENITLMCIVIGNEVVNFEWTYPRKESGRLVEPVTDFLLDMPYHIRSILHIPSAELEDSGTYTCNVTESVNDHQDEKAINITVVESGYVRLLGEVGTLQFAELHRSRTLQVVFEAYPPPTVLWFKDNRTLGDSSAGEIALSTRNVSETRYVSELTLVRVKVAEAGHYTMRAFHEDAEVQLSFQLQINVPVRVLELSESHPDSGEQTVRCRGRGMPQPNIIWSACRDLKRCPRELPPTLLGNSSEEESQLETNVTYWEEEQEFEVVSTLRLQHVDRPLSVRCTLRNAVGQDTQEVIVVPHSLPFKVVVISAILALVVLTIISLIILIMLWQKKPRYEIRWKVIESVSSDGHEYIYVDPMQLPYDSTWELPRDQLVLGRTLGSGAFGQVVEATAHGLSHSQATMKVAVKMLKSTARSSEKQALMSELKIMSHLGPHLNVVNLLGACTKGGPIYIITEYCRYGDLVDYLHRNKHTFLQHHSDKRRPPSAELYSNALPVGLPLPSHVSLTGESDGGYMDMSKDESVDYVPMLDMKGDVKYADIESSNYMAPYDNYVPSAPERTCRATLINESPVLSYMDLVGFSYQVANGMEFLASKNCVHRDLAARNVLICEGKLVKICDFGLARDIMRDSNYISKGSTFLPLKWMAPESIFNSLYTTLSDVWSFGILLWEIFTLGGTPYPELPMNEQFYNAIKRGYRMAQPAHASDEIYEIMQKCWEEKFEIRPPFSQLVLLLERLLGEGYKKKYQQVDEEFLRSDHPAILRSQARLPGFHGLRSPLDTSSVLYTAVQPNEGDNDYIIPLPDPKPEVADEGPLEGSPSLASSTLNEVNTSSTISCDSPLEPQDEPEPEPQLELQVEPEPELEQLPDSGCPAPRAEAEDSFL
T1 sequence (P00533 25-1210): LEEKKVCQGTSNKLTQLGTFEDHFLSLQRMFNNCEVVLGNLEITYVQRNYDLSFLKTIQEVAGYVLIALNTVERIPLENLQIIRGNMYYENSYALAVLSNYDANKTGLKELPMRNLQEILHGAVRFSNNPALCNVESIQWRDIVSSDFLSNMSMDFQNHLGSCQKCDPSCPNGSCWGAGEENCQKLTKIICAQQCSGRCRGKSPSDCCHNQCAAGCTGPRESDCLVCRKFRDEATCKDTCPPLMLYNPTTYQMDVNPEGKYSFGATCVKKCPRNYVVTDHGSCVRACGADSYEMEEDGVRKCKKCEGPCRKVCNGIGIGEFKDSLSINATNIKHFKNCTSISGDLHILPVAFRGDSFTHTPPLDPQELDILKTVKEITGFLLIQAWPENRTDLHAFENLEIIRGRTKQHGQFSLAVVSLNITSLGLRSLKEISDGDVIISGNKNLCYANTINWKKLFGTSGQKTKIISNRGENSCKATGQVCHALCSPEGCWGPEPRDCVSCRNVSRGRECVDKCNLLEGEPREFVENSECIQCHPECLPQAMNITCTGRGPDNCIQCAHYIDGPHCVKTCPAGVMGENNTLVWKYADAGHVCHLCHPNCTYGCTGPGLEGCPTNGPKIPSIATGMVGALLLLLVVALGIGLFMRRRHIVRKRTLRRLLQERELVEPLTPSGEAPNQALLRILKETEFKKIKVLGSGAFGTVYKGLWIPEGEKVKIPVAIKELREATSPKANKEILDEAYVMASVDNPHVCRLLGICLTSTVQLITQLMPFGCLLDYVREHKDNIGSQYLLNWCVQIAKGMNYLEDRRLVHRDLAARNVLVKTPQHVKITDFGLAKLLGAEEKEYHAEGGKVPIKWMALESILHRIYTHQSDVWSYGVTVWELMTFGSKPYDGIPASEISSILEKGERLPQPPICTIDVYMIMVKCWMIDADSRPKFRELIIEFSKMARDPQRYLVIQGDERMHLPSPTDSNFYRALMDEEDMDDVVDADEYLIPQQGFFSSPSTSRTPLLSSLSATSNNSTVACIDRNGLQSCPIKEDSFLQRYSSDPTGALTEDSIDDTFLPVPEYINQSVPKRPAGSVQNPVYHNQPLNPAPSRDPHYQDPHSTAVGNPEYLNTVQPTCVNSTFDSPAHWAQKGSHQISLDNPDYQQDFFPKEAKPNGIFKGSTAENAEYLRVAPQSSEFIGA

Row | Structure (SMILES) | Biochem EGFR %Inhibition [1] | PDGF Kinase %Inhibition [2] | Met Kinase % Inhibition [3]
1 | CNS(=O)(=O)c1ccc2c(c1)C(=Cc1cccn1-c1ccc(Cl)cc1)C(=O)N2 [10724/D09] | -15.3% | 18.9% | 16.1%
2 | CCc1ccc(C=C2C(=O)Nc3ccc(S(=O)(=O)NC)cc32)o1 [10724/D10] | 12.7% | 38.3% | 59.6%
3 | CNS(=O)(=O)c1ccc2c(c1)C(=Cc1sc3scc(C)c3c1C)C(=O)N2 [10724/D11] | 12.9% | 29.3% | 20.3%
4 | CN(C)c1ccc(C=C2C(=O)Nc3ccc(S(=O)(=O)Nc4ccc(C(F)(F)F)cc4)cc32)c2ccccc12 [10724/E02] | 39.8% | -54.2% | 55.4%
5 | O=C1Nc2ccc(S(=O)(=O)Nc3ccc(C(F)(F)F)cc3)cc2C1=Cc1ccc(O)c([N+](=O)[O-])c1 [10724/E03] | 33.1% | 14.7% | 85.8%
6 | O=C1Nc2ccc(S(=O)(=O)Nc3ccc(C(F)(F)F)cc3)cc2C1=Cc1ccc([N+](=O)[O-])c(O)c1 [10724/E04] | 8.9% | -32.6% | 93.3%
7 | O=C1Nc2ccc(S(=O)(=O)Nc3ccc(C(F)(F)F)cc3)cc2C1=Cc1cc2c3c(c1O)CCCN3CCC2 [10724/E05] | 0.5% | -7.6% | 70.3%
8 | CC(C)c1cc(C=C2C(=O)Nc3ccc(S(=O)(=O)Nc4ccc(C(F)(F)F)cc4)cc32)cc(C(C)C)c1O [10724/E06] | 1.6% | 6.3% | 25.8%
9 | O=C1Nc2ccc(S(=O)(=O)Nc3ccc(C(F)(F)F)cc3)cc2C1=Cc1cc2ccccc2o1 [10724/E07] | 9.4% | 0.1% | 46.8%
10 | O=C1Nc2ccc(S(=O)(=O)Nc3ccc(C(F)(F)F)cc3)cc2C1=Cc1cccn1-c1ccc(Cl)cc1 [10724/E09] | 6.3% | 21.0% | 27.0%
11 | CCc1ccc(C=C2C(=O)Nc3ccc(S(=O)(=O)Nc4ccc(C(F)(F)F)cc4)cc32)o1 [10724/E10] | 41.4% | 34.9% | 84.0%
12 | Cc1csc2sc(C=C3C(=O)Nc4ccc(S(=O)(=O)Nc5ccc(C(F)(F)F)cc5)cc43)c(C)c12 [10724/E11] | -26.8% | 5.0% | 39.3%
13 | CN(C)c1ccc(C=C2C(=O)Nc3ccc(CCCl)cc32)c2ccccc12 [10724/G02] | 42.5% | -7.6% | 44.9%
14 | O=C1Nc2ccc(CCCl)cc2C1=Cc1ccc(O)c([N+](=O)[O-])c1 [10724/G03] | 7.8% | -2.7% | 36.7%
15 | O=C1Nc2ccc(CCCl)cc2C1=Cc1ccc([N+](=O)[O-])c(O)c1 [10724/G04] | 12.9% | -12.4% | 71.0%
16 | O=C1Nc2ccc(CCCl)cc2C1=Cc1cc2c3c(c1O)CCCN3CCC2 [10724/G05] | -20.8% | -10.3% | 61.0%
17 | CC(C)c1cc(C=C2C(=O)Nc3ccc(CCCl)cc32)cc(C(C)C)c1O [10724/G06] | 3.2% | -6.9% | 20.3%
18 | O=C1Nc2ccc(CCCl)cc2C1=Cc1cc2ccccc2o1 [10724/G07] | -11.7% | -41.6% | 2.3%
19 | O=C1Nc2ccc(CCCl)cc2C1=Cc1cccn1-c1ccc(Cl)cc1 [10724/G09] | -21.7% | -18.0% | -2.8%
20 | CCc1ccc(C=C2C(=O)Nc3ccc(CCCl)cc32)o1 [10724/G10] | -10.6% | -15.9% | 62.8%

Row | Structure (SMILES) | Biochem EGFR %Inhibition [1] | PDGF Kinase %Inhibition [2] | Met Kinase % Inhibition [3]
21 | Cc1csc2sc(C=C3C(=O)Nc4ccc(CCCl)cc43)c(C)c12 [10724/G11] | -29.5% | -29.1% | 11.2%
22 | O=C1Nc2c(Br)cc(Br)cc2C1=Cc1sccc1Br [10725/A02] | 3.9% | -14.2% | 46.6%
23 | COc1ccc(Br)c(C=C2C(=O)Nc3c(Br)cc(Br)cc32)c1O [10725/A03] | -38.2% | 5.9% | 68.0%
24 | Cc1cc(C=C2C(=O)Nc3c(Br)cc(Br)cc32)[nH]n1 [10725/A05] | 7.9% | 13.1% | 47.5%
25 | COc1cc(C)cc(O)c1C=C1C(=O)Nc2c(Br)cc(Br)cc21 [10725/A06] | -9.5% | 40.9% | 71.7%
26 | O=CN1CCN(c2ccc(C=C3C(=O)Nc4c(Br)cc(Br)cc43)cc2)CC1 [10725/A07] | 18.2% | 17.9% | 59.3%
27 | O=C1Nc2c(Br)cc(Br)cc2C1=Cc1ccc(N2CCOCC2)cc1 [10725/A08] | 10.9% | 14.1% | 45.3%
28 | COC(=O)Cc1c(Cl)[nH]c(C=C2C(=O)Nc3c(Br)cc(Br)c(C)c32)c1C(=O)OC [10725/A09] | 4.9% | 29.4% | 44.3%
29 | Cc1c(Br)cc(Br)c2c1C(=Cc1c(Br)cnn1-c1ccc(Cl)cc1)C(=O)N2 [10725/A10] | 14.0% | 33.7% | 43.2%
30 | Cc1c(Br)cc(Br)c2c1C(=Cc1c[nH]cn1)C(=O)N2 [10725/A11] | 14.6% | 18.9% | 49.1%
31 | O=C1Nc2ccc(I)cc2C1=Cc1sccc1Br [10725/B02] | 2.5% | -7.5% | 66.9%
32 | COc1ccc(Br)c(C=C2C(=O)Nc3ccc(I)cc32)c1O [10725/B03] | -15.3% | 7.8% | 70.8%
33 | Cc1cc(C=C2C(=O)Nc3ccc(I)cc32)[nH]n1 [10725/B05] | 20.4% | 44.7% | 68.3%
34 | COc1cc(C)cc(O)c1C=C1C(=O)Nc2ccc(I)cc21 [10725/B06] | -13.7% | 31.3% | 53.3%
35 | O=CN1CCN(c2ccc(C=C3C(=O)Nc4ccc(I)cc43)cc2)CC1 [10725/B07] | 45.8% | 100.8% | 74.0%
36 | O=C1Nc2ccc(I)cc2C1=Cc1ccc(N2CCOCC2)cc1 [10725/B08] | 41.8% | 29.4% | 66.7%
37 | COC(=O)Cc1c(Cl)[nH]c(C=C2C(=O)Nc3ccc(I)cc32)c1C(=O)OC [10725/B09] | 72.3% | 43.8% | 65.7%
38 | O=C1Nc2ccc(I)cc2C1=Cc1c(Br)cnn1-c1ccc(Cl)cc1 [10725/B10] | 53.3% | 26.0% | 69.9%
39 | O=C1Nc2ccc(I)cc2C1=Cc1c[nH]cn1 [10725/B11] | 43.0% | 66.3% | 76.3%

— patent publication EP1247803A2, “Indolinone compounds suitable for modulation of protein kinases” (Sugen, Inc., priority 1996, dated 1998)
